This is an account of results in patent publication US10758522B2, “Small molecule analogs of the nemo binding peptide” (THE SCRIPPS RESEARCH INSTITUTE, priority 2015, dated 2020).

In general, IC50 refers to the concentration at which inhibition is half-maximal.

Data set [1] deals with NF-κB target genes. Put plainly: qRT-PCR of NF-κB target genes in LPS-stimulated Raw 264.7 cells. The class given is cell-based, mouse. Conditions: for transcription of NF-κB target genes (COX2, IL-6, IL-1β, TNF-α, IκBα, iNOS): Raw 264.7, 1 ug/ml LPS 2 hr, mimetics 50 μM, IKKi VII 2 μM, 8K-NBD 400 μM. The procedure: Effect of the NBD mimetics on expression of NF-kB regulated genes in the Raw mouse macrophage cell line. Treatment of the Raw cells with the indicated drugs prior to addition of LPS reduced NF-kB-mediated gene expression as measured by RT-PCR.
To determine whether the inhibitory effect of the mimetics is TNF-α-dependent, LPS-mediated NF-κB activation via TLR4 was examined to determine a broader inhibitory effect of the novel NBD mimetics. NF-κB was stimulated in Raw 264.7 by 1 ug/ml of LPS for 2 hr and genes transcriptionally regulated by NF-κB were determined by qRT-PCR analysis. Both an IKK active site inhibitor IKKi VII (2 μM) and the 8K-NBD peptide (400 μM) were included as positive controls and the expression of COX2, IL-6, IL-1β, TNF-α, IκBα and iNOS were assessed.
Raw 264.7 cells were treated with a 50 μM solution of the SR compound for 30 minutes, and then the mRNA was harvested 2 hours after addition of 1 μg/mL LPS.
Snap frozen tissues were preserved in RNAlater RNA stabilization solution (ThermoFisher) before processed. Total RNA was extracted from cells or tissues using TRIZOL reagent (Life Technologies) and 1500 ng of messenger RNA (mRNA) was subjected to synthesize complementary DNA (cDNA) using SuperScript VILO cDNA synthesis kit. qRT-PCR was performed in a StepOnePlus Real-Time PCR system using Platinum SYBR Green qPCR SuperMix-UDG (ThermoFisher). Target gene expression was calculated using the comparative CT method (ΔΔCT) and normalized to an internal control gene Actb (β-actin). Primers used are as follows: Ptgs2 (COX-2) forward: […]; Ptgs2 (COX-2) reverse: […]; Nfkbia (IκBα) forward: […]; Nfkbia (IκBα) reverse: […]; Il1b (IL-1β) forward: […]; Il1b (IL-1β) reverse: […]; Nos2 (iNOS) forward: […]; Nos2 (iNOS) reverse: […]; Tnf (TNF) forward: […]; Tnf (TNF) reverse: […]; Il6 (IL-6) forward: […]; Il6 (IL-6) reverse: […]. Actb (β-actin) forward: […]; Actb (β-actin) reverse: […];
A general note: Quantitative PCR measures a nucleic acid by following its amplification.

For data set [2], the system named is embryonic fibroblasts from Ercc1−/− mice. Kind of data set: Senescence rescue assay in ERCC1-deficient murine embryonic fibroblasts (SA-ß-gal). In kind it is cell-based, mouse. The note with it: oxidative stress conditions (20% O2). The source says: In an attempt to identify new drugs able to improve healthspan, we have developed an assay for screening for drugs able to rescue primary “aged” fibroblasts from senescence. This assay uses murine embryonic fibroblasts (MEFs) from mice with accelerated aging due to a deficiency in an important DNA repair pathway, ERCC1-XPF. These MEFs undergo rapid senescence in culture, especially when grown under the high oxygen conditions that confers oxidative stress (FIGS. 18 and 19).

The nature of data set [3]: Pharmacokinetics study after ip injection. In kind it is in vivo. The note with it: mice, 10 mg/kg ip, 2 hr. The procedure:
To determine the stability of the NBD mimetics in vivo, the pharmacokinetics of the compounds was determined in serum following ip injection.
The pharmacokinetic profiles of the NBD mimetics were determined in male C57BL/6J mice (n=3). The drugs were formulated in 10:10:80 of DMSO:Tween 80:water and were dosed by intraperitoneal injection at a final dose of 10 mg/kg. Blood, brain, muscle, spleen, and liver were collected 2 hr post-treatment and were analyzed by mass spectrometry by following the protocol described in ref. 215 (42).

The test system of data set [4] is IKKβ-NEMO interaction. Kind of data set: Immunoprecipitation of NEMO and IKKβ immunoblot in Raw 264.7 macrophages and HEK293 cells. The class given is cell-based. The note with it: Raw 264.7 macrophages / HEK293; mimetics 100 μM, 8K-NBD 400 μM. The procedure: The NBD mimetics reduce the interaction between IKKg (NEMO) and IKKß. The indicated concentrations of the drugs were added to HEK 293 or Raw 264.7 cells and cell extracts prepared 30 minutes later. Following immunoprecipitation (IP) of NEMO, the Western was probed for IKKß.
After treatment with the mimetics or NBD peptide, NEMO was immunoprecipitated by an anti-NEMO antibody and IKKβ was immunoblotted to determine the binding of IKKβ to NEMO.
HEK293 or Raw264.7 cells were seeded at 1×10^6 cells/well in 6-well plates and treated with vehicle, small molecule or NBD peptide for indicated time. Cells were lysed in NP-40 lysis buffer supplemented with 1× protease inhibitor cocktails (sigma). Protein was immunoprecipitated by incubating 150 μg of lysate with 1 μg of anti-NEMO antibody (Santa Cruz) on a rotating shaker at 4° C. for 4 hrs, followed by incubation with 20 ul of Protein A agarose beads (ThermoFisher) for 1 hr. Beads were washed in NP40 buffer 3 times and PBS once. Protein was then denatured in SDS-sample buffer and resolved by MINI-PROTEAN TGX 4-15% SDS-PAGE. Anti-IKKβ (1:1000 CST) was used to assess binding of IKKβ to NEMO and anti-NEMO (1:1000 CST) or IgG were used to as a loading control.
(In general: In western blotting, separated proteins are transferred to a membrane and probed.)

The test system of data set [5] is IL-6. Put plainly: IL-6 ELISA in LPS-stimulated Raw 264.7 cells. The class given is cell-based, mouse. The note with it: Raw 264.7, 1 ug/ml LPS, supernatant at 24 hr. The protocol:
To confirm the qRT-PCR result, LPS-mediated IL-6 production was analyzed in Raw 264.7 cells by ELISA. […] Moreover, SR11481 appears to work more efficiently at a lower concentration around 25 μM. Taken together, four lead compounds were identified through seven rounds of optimization and modification.
Enzyme-Linked Immunosorbent Assay (ELISA). Raw264.7 cells were grown in a 96-well plate and pretreated with vehicle, IKKi VII (2 uM) and small molecules (at indicated concentration) for 1 hr, followed by the stimulation with 1 ug/ml of LPS. Supernatant was collected 24 hr later for ELISA analysis. IL-6 concentration was measured using a mouse IL-6 ELISA kit (BD) according to the manufacturer's instructions.
In general terms: An ELISA detects its analyte on a solid surface through an enzyme-linked reagent.

Data set [6] concerns the target T1, IKK complex (IKKß, IKKα and NEMO) (Homo sapiens, UniProt Q9Y6K9).
T1 construct: analyzed by Western blot for the level of co-precipitated NEMO; endogenous in cells; host or cells: 293 (HEK293) cells
Kind of data set: Co-immunoprecipitation of NEMO with IKKß in 293 cells. Conditions: Zinc-5 at 4 hours, Zinc-13 at 1 hour, NBD peptide at 4 hours. In kind it is cell-based. The source says: FIG. 8 is a bar graph showing the inhibition of TNFα by NBDA-1 (Zinc-13). […] In addition, we have examined the ability of the compounds to disrupt the IKK complex, comprised of IKKß, IKKα and NEMO.
A non-functional, related compound Zinc-7 had no effect.

For data set [7], the system named is NF-κB. Put plainly: Firefly luciferase NF-κB reporter assay in TNF-α-stimulated HEK293 cells. The class given is cell-based. Conditions: 293 NF-κB luciferase reporter cells, 10 ng/ml TNF-α; compound 12909780 at 100 μM. The protocol:
This model was used to screen a subset of the drug-like ZINC 8.0 database set (˜900,000 compounds) (Irwin et al., 2005). We were able to identify 161 hits that matched at least 6 features out of eight of the pharmacophore model. […] Two compounds termed NBDA-1 (Zinc-13) and NBDA-2 (Zinc-5), successfully passed these filters (See FIG. 4) and were purchased for biological testing. The compounds were then tested for ability to inhibit TNF-alpha-mediated induction of NF-κB activity in a 293 cells stably modified with a NF-κB luciferase reporter.
The activation of NF-κB was then quantitated by measuring the level of luciferase activity. […] Also, protein extracts were prepared from the same cells and the level of phospho-IkB determined, a marker of IKK activity.
To test if the small molecules identified by the in silico screen inhibit NF-κB activation, a HEK293 cell line stably expressing a luciferase reporter driven by a synthetic, NF-κB-dependent promoter was utilized. To induce NF-κB activation, cells were treated with 10 ng/ml of TNF-α and harvested three hours post-treatment for analysis of luciferase activity. […] To determine if compound 12909780 inhibited NF-κB in a dose dependent manner, concentrations were tested at 0, 6.25, 25, 50 and 100 μM.
HEK293 cells stably transfected with luciferase reporter plasmid driven by NF-κB were seeded in 96-well plate in triplicate and pretreated with DMSO or varying small molecules at indicated concentration for 30 min, followed by the stimulation of 10 ng/ml of TNFα for 3 hr. Cell were washed with PBS once and harvested in passive lysis buffer. Luciferase assay (Promega) was performed using a luminometer according to the manufacturer's instructions.

In data set [8] the target is NEMO (Homo sapiens, UniProt Q9Y6K9). Conditions: cited from earlier work; for IC50: read-out: IC50, affinity to NEMO.
Chain of NEMO (Q9Y6K9 whole entry, species assumed): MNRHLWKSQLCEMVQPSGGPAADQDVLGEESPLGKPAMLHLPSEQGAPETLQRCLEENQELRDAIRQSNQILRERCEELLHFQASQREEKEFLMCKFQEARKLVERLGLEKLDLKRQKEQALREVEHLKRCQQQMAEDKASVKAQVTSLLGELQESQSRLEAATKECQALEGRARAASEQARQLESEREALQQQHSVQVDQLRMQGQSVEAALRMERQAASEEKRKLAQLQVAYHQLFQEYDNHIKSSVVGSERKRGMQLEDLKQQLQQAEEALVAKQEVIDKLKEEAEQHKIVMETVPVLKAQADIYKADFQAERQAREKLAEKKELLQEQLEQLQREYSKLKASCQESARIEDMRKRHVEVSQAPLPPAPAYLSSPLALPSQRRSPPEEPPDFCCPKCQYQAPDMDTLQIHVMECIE

T1 sequence (Q9Y6K9 whole entry, one chain of several): as the sequence (Q9Y6K9 whole entry, species assumed) above

On to `O=C(c1ccc(Nc2nccc(-c3cc4ccccc4s3)n2)cc1)N1CCC(N2CCCC2)CC1` [IKKi VII, reference compound], for which, in data set [1], the “transcription of NF-κB target genes (COX2, IL-6, IL-1β, TNF-α, IκBα, iNOS)” value (“transcription of NF-κB target genes” for short) was “able to inhibit most NF-κB target gene expression”. For the same compound, the iNOS expression entry in data set [1] (Raw 264.7, LPS) was “failed to downregulate iNOS expression”. For the compound `CC(Cc1ccc(O)c(O)c1)C(C)Cc1ccc(O)c(O)c1` (centres unmarked) [NDGA], the “senescence (SA-ß-gal staining) of ERCC1-deficient MEFs” value in data set [2] was “most effective for rescuing senescence”.

`O=C(COC(=O)Cc1cc(F)cc(F)c1)Nc1ccc(Cl)cn1` [SR11481, 2-((5-chloropyridin-2-yl)amino)-2-oxoethyl 2-(3,5-difluorophenyl)acetate]: the “stability in serum after ip injection” value in data set [3] is given as “extremely unstable with undetectable levels at 2 hr”. Moreover, in data set [1], the “transcription of NF-κB target genes” value is “failed to suppress all NF-κB target genes”. In addition, the “disruption of IKKβ-NEMO interaction (NEMO IP, IKKβ blot)” value in data set [4] was “disruption of the association between NEMO and IKK-β”. Also, the “LPS-mediated mIL-6 production (ELISA)” value in data set [5] is “reduction in the accumulation of IL-6 protein at 24 hr”. Regarding `O=C(COCCc1cc(F)cc(F)c1)Nc1ccc(Cl)cn1` [SR12454, N-(5-chloropyridin-2-yl)-2-(3,5-difluorophenethoxy)acetamide], in data set [3], the “stability in serum after ip injection” value is on record as “moderate stability”. Besides, the “transcription of NF-κB target genes” value in data set [1] was “significantly downregulate the transcription of all NF-κB target genes tested”. In addition, the “disruption of IKKβ-NEMO interaction (NEMO IP, IKKβ blot)” value in data set [4] was “disruption of the association between NEMO and IKK-β”. The “LPS-mediated mIL-6 production (ELISA)” value in data set [5] is reported as “decreasing by half at 25 μM”. `O=C(COC(=O)c1c2ccccc2cc2ccccc12)Nc1ncc(C(F)(F)F)cc1Cl` [ZINC7, anthracene-9-carboxylic-acid-[2-[[3-chloro-5-(trifluoromethyl)-2-pyridyl]amino]-2-keto-ethyl]-ester]: in data set [6], the “level of NEMO co-immunoprecipitated with IKKß” value is on record as “had no effect”.

For `O=C(COC(=O)Cc1ccccc1)Nc1ncc(Cl)cc1Cl` [ZINC9, 2-phenylacetic-acid-[2-[(3,5-dichloro-2-pyridyl)amino]-2-keto-ethyl]-ester], the “inhibition of TNF-α-induced NF-κB activation (luciferase reporter), in words” value in data set [7] is “lowered NF-κB activity robustly”. Turning to `CC(=O)Oc1ccccc1C(=O)O` [aspirin], in data set [2], the “senescence (SA-ß-gal staining) of ERCC1-deficient MEFs” value is “most effective for rescuing senescence”. Regarding “IKKβ-derived peptide (701-746): longer IKKβ-derived peptide (701-746) containing all residues and domains (PAKKSEELVAEAHNLCTLLENAIQDTVREQDQSFTALDWSWLQTEE; UniProt O14920 701-746, looked up, fragment)”, in data set [8], the IC50 was about 0.01 µM. On to “mutated 11-mer NBD peptide (735-745): 11-mer NBD peptide with substitutions of arginine for W741 and W739 (TALDRSRLQTE; NEMO binding domain; UniProt O14920 735-745, looked up, variant W739R W741R)”, for which, in data set [8] (W741 and W739 substituted by arginine), the “binding to NEMO” value was “unable to bind to NEMO”.

Turning to “traditional 11 amino acid NEMO binding domain peptide of IKKβ, amino acids 735-745, TALDWSWLQTE [11-mer NBD peptide]”, the IC50 in data set [8] was about 100 µM.
